# Data published in patent publication US11807644B2 (PMV Pharmaceuticals, Inc., priority 2020, dated 2023).
# Target: T1, recombinant His-tag Y220C p53 DBD protein (Homo sapiens, UniProt P04637, Y220C)
# T1 construct: recombinant His-tag Y220C p53 DBD protein (amino acids #˜94-312)
# Experiment: In vitro DNA binding activity assay (TR-FRET): binding of His-tag Y220C p53 DBD to biotin-labeled consensus DNA
# Type: biochemical
# Settings: SC150 = concentration to increase DNA binding by […], His-tag Y220C p53 DBD, biotin-labeled consensus DNA
row,Y220C SC150 (μM),SMILES
1,* (* = 0 μM ≤ SC150 < 0.1 μM),"CN1CCC(Nc2cccc3c2cc(-c2noc(CNC(=O)c4cnn(C)c4)n2)n3CC(F)(F)F)CC1 [Compound 154B, 1-methyl-N-[(3-{4-[(1-methylpiperidin-4-yl)amino]-1-(2,2,2-trifluoroethyl)-1H-indol-2-yl}-1,2,4-oxadiazol-5-yl)methyl]-1H-pyrazole-4-carboxamide]"
2,* (* = 0 μM ≤ SC150 < 0.1 μM),"CN1CCC(Nc2cccc3c2cc(-c2noc(CNC(=O)c4ccn(C)n4)n2)n3CC(F)(F)F)CC1 [Compound 155B, 1-methyl-N-[(3-{4-[(1-methylpiperidin-4-yl)amino]-1-(2,2,2-trifluoroethyl)-1H-indol-2-yl}-1,2,4-oxadiazol-5-yl)methyl]-1H-pyrazole-3-carboxamide]"
3,* (* = 0 μM ≤ SC150 < 0.1 μM),"O=C(NCc1nc(-c2cc3c(NC4CCOCC4)cccc3n2CC(F)(F)F)no1)C1CC1 [Compound 159B, N-[(3-{4-[(oxan-4-yl)amino]-1-(2,2,2-trifluoroethyl)-1H-indol-2-yl}-1,2,4-oxadiazol-5-yl)methyl]cyclopropanecarboxamide]"
4,** (** = 0.1 μM ≤ SC150 < 0.5 μM),"O=C(NCc1nc(-c2cc3c(NCc4ccccc4)cccc3n2CC(F)(F)F)no1)C1CC1 [Compound 160B, N-({3-[4-(benzylamino)-1-(2,2,2-trifluoroethyl)-1H-indol-2-yl]-1,2,4-oxadiazol-5-yl}methyl)cyclopropanecarboxamide]"
5,* (* = 0 μM ≤ SC150 < 0.1 μM),"CC(=O)N1CCC(Nc2cccc3c2cc(-c2noc(CNC(=O)C4CC4)n2)n3CC(F)(F)F)CC1 [Compound 161B, N-[(3-{4-[(1-acetylpiperidin-4-yl)amino]-1-(2,2,2-trifluoroethyl)-1H-indol-2-yl}-1,2,4-oxadiazol-5-yl)methyl]cyclopropanecarboxamide]"
6,* (* = 0 μM ≤ SC150 < 0.1 μM),"O=C(NCc1nc(-c2cc3c(NC4CCS(=O)(=O)CC4)cccc3n2CC(F)(F)F)no1)C1CC1 [Compound 162B, N-[(3-{4-[(1,1-dioxo-1λ^6-thian-4-yl)amino]-1-(2,2,2-trifluoroethyl)-1H-indol-2-yl}-1,2,4-oxadiazol-5-yl)methyl]cyclopropanecarboxamide]"
7,* (* = 0 μM ≤ SC150 < 0.1 μM),"O=C(NCc1nc(-c2cc3c(NC4CCN(Cc5ccccc5)CC4)cccc3n2CC(F)(F)F)no1)C1CC1 [Compound 163B, N-[(3-{4-[(1-benzylpiperidin-4-yl)amino]-1-(2,2,2-trifluoroethyl)-1H-indol-2-yl}-1,2,4-oxadiazol-5-yl)methyl]cyclopropanecarboxamide]"
8,* (* = 0 μM ≤ SC150 < 0.1 μM),"O=C(NCc1nc(-c2cc3c(NC4CCN(C5CC5)CC4)cccc3n2CC(F)(F)F)no1)C1CC1 [Compound 164B, N-[(3-{4-[(1-cyclopropylpiperidin-4-yl)amino]-1-(2,2,2-trifluoroethyl)-1H-indol-2-yl}-1,2,4-oxadiazol-5-yl)methyl]cyclopropanecarboxamide]"
9,** (** = 0.1 μM ≤ SC150 < 0.5 μM),"O=C(NCc1nc(-c2cc3c(NCC4CC4)cccc3n2CC(F)(F)F)no1)C1CC1 [Compound 165B, N-[(3-{4-[(cyclopropylmethyl)amino]-1-(2,2,2-trifluoroethyl)-1H-indol-2-yl}-1,2,4-oxadiazol-5-yl)methyl]cyclopropanecarboxamide]"
10,** (** = 0.1 μM ≤ SC150 < 0.5 μM),"O=C(NCc1nc(-c2cc3c(NCC4CCC4)cccc3n2CC(F)(F)F)no1)C1CC1 [Compound 166B, N-[(3-{4-[(cyclobutylmethyl)amino]-1-(2,2,2-trifluoroethyl)-1H-indol-2-yl}-1,2,4-oxadiazol-5-yl)methyl]cyclopropanecarboxamide]"
11,* (* = 0 μM ≤ SC150 < 0.1 μM),"CCN1CCC(Nc2cccc3c2cc(-c2noc(CNC(=O)C4CC4)n2)n3CC(F)(F)F)CC1 [Compound 168B, N-[(3-{4-[(1-ethylpiperidin-4-yl)amino]-1-(2,2,2-trifluoroethyl)-1H-indol-2-yl}-1,2,4-oxadiazol-5-yl)methyl]cyclopropanecarboxamide]"
12,* (* = 0 μM ≤ SC150 < 0.1 μM),"O=C(NCc1nc(-c2cc3c(NCC4CNC4)cccc3n2CC(F)(F)F)no1)C1CC1 [Compound 170B, N-{[3-(4-{[(432zetidine-3-yl)methyl]amino}-1-(2,2,2-trifluoroethyl)-1H-indol-2-yl)-1,2,4-oxadiazol-5-yl]methyl}cyclopropanecarboxamide]"
13,* (* = 0 μM ≤ SC150 < 0.1 μM),"CN1CC[C@@H](Nc2cccc3c2cc(-c2noc(CNC(=O)C4CC4)n2)n3CC(F)(F)F)[C@@H](F)C1 [Compound 173B, N-{[3-(4-{[(3S,4R)-3-fluoro-1-methylpiperidin-4-yl]amino}-1-(2,2,2-trifluoroethyl)-1H-indol-2-yl)-1,2,4-oxadiazol-5-yl]methyl}cyclopropanecarboxamide]"
14,* (* = 0 μM ≤ SC150 < 0.1 μM),"CN1CC[C@H](Nc2cccc3c2cc(-c2noc(CNC(=O)C4CC4)n2)n3CC(F)(F)F)[C@H](F)C1 [Compound 174B, N-{[3-(4-{[(3R,4S)-3-fluoro-1-methylpiperidin-4-yl]amino}-1-(2,2,2-trifluoroethyl)-1H-indol-2-yl)-1,2,4-oxadiazol-5-yl]methyl}cyclopropanecarboxamide]"
15,* (* = 0 μM ≤ SC150 < 0.1 μM),"CN1CC[C@@H](Nc2cccc3c2cc(-c2noc(CNC(=O)c4ccn(C)c4)n2)n3CC(F)(F)F)[C@@H](F)C1 [Compound 181B, N-{[3-(4-{[(3S,4R)-3-fluoro-1-methylpiperidin-4-yl]amino}-1-(2,2,2-trifluoroehyl)-1H-indol-2-yl)-1,2,4-oxadiazol-5-yl]methyl}-1-methyl-1H-pyrrole-3-carboxamide]"
16,* (* = 0 μM ≤ SC150 < 0.1 μM),"CN1CC[C@H](Nc2cccc3c2cc(-c2noc(CNC(=O)c4ccn(C)c4)n2)n3CC(F)(F)F)[C@H](F)C1 [Compound 182B, N-{[3-(4-{[(3R,4S)-3-fluoro-1-methylpiperidin-4-yl]amino}-1-(2,2,2-trifluoroethyl)-1H-indol-2-yl)-1,2,4-oxadiazol-5-yl]methyl}-1-methyl-1H-pyrrole-3-carboxamide]"
17,* (* = 0 μM ≤ SC150 < 0.1 μM),"CCn1ccc(C(=O)NCc2nc(-c3cc4c(N[C@@H]5CCN(C)C[C@@H]5F)cccc4n3CC(F)(F)F)no2)c1 [Compound 186B, 1-ethyl-N-{[3-(4-{[(3S,4R)-3-fluoro-1-methylpiperidin-4-yl]amino}-1-(2,2,2-trifluoroethyl)-1H-indol-2-yl)-1,2,4-oxadiazol-5-yl]methyl}-1H-pyrrole-3-carboxamide]"
18,* (* = 0 μM ≤ SC150 < 0.1 μM),"CCn1ccc(C(=O)NCc2nc(-c3cc4c(N[C@H]5CCN(C)C[C@H]5F)cccc4n3CC(F)(F)F)no2)c1 [Compound 187B, 1-ethyl-N-{[3-(4-{[(3R,4S)-3-fluoro-1-methylpiperidin-4-yl]amino}-1-(2,2,2-trifluoroethyl)-1H-indol-2-yl)-1,2,4-oxadiazol-5-yl]methyl}-1H-pyrrole-3-carboxamide]"
19,* (* = 0 μM ≤ SC150 < 0.1 μM),"CN1CC[C@@H](Nc2cccc3c2cc(-c2noc(CNC(=O)c4ccsc4)n2)n3CC(F)(F)F)[C@@H](F)C1 [Compound 189B, N-{[3-(4-{[(3S,4R)-3-fluoro-1-methylpiperidin-4-yl]amino}-1-(2,2,2-trifluoroethyl)-1H-indol-2-yl)-1,2,4-oxadiazol-5-yl]methyl}thiophene-3-carboxamide]"
20,* (* = 0 μM ≤ SC150 < 0.1 μM),"CN1CC[C@H](Nc2cccc3c2cc(-c2noc(CNC(=O)c4ccsc4)n2)n3CC(F)(F)F)[C@H](F)C1 [Compound 190B, N-{[3-(4-{[(3R,4S)-3-fluoro-1-methylpiperidin-4-yl]amino}-1-(2,2,2-trifluoroethyl)-1H-indol-2-yl)-1,2,4-oxadiazol-5-yl]methyl}thiophene-3-carboxamide]"
21,* (* = 0 μM ≤ SC150 < 0.1 μM),"CN1CC[C@@H](Nc2cccc3c2cc(-c2noc(CNC(=O)c4ccn(C(C)(C)C)c4)n2)n3CC(F)(F)F)[C@@H](F)C1 [Compound 194B, 1-tert-butyl-N-{[3-(4-{[(3S,4R)-3-fluoro-1-methylpiperidin-4-yl]amino}-1-(2,2,2-trifluoroethyl)-1H-indol-2-yl)-1,2,4-oxadiazol-5-yl]methyl}-1H-pyrrole-3-carboxamide]"
22,* (* = 0 μM ≤ SC150 < 0.1 μM),"CN1CC[C@@H](Nc2cccc3c2cc(-c2noc(CNC(=O)c4cc5ccccn5c4)n2)n3CC(F)(F)F)[C@@H](F)C1 [Compound 196B, N-{[3-(4-{[(3S,4R)-3-fluoro-1-methylpiperidin-4-yl]amino}-1-(2,2,2-trifluoroethyl)-1H-indol-2-yl)-1,2,4-oxadiazol-5-yl]methyl}indolizine-2-carboxamide]"
23,* (* = 0 μM ≤ SC150 < 0.1 μM),"CN1CC[C@@H](Nc2cccc3c2cc(-c2noc(CNC(=O)c4cn(-c5ccccc5)cn4)n2)n3CC(F)(F)F)[C@@H](F)C1 [Compound 197B, N-{[3-(4-{[(3S,4R)-3-fluoro-1-methylpiperidin-4-yl]amino}-1-(2,2,2-trifluoroethyl)-1H-indol-2-yl)-1,2,4-oxadiazol-5-yl]methyl}-1-phenyl-1H-imidazole-4-carboxamide]"
24,* (* = 0 μM ≤ SC150 < 0.1 μM),"COCCn1ccc(C(=O)NCc2nc(-c3cc4c(N[C@@H]5CCN(C)C[C@@H]5F)cccc4n3CC(F)(F)F)no2)c1 [Compound 198B, N-{[3-(4-{[(3S,4R)-3-fluoro-1-methylpiperidin-4-yl]amino}-1-(2,2,2-trifluoroethyl)-1H-indol-2-yl)-1,2,4-oxadiazol-5-yl]methyl}-1-(2-methoxyethyl)-1H-pyrrole-3-carboxamide]"
25,* (* = 0 μM ≤ SC150 < 0.1 μM),"CC(C)n1ccc(C(=O)NCc2nc(-c3cc4c(N[C@@H]5CCN(C)C[C@@H]5F)cccc4n3CC(F)(F)F)no2)c1 [Compound 199B, N-{[3-(4-{[(3S,4R)-3-fluoro-1-methylpiperidin-4-yl]amino}-1-(2,2,2-trifluoroethyl)-1H-indol-2-yl)-1,2,4-oxadiazol-5-yl]methyl}-1-(propan-2-yl)-1H-pyrrole-3-carboxamide]"
